{"source": "paper PMC11845477", "about": "“Exploring the principles behind antibiotics with limited resistance” (Nature Communications, 2025)", "key": {"[1]": {"system": "T1, P. aeruginosa ATCC BAA-3107", "T1 construct": "ATCC BAA-3107", "experiment": "microbe, parasite or virus in culture", "parameters": "Serial broth microdilution MIC (CLSI), OD600 below 0.05, 384-well plates, MHB medium", "conditions": "Pseudomonas aeruginosa, ATCCBAA3107, 18 h; ancestor strain before evolution", "experimental": "A final concentration of 5 × 10^5 bacterial cells per mL were inoculated into each well containing 60 µL MHB medium. Bacterial cultures were incubated at 37 °C with continuous shaking (Infors shaker, 900 rpm with 3 mm throw) for 18 hours (2 replicates from each). Cell growth was monitored by measuring the optical density (OD600 values, using Biotek Synergy microplate reader). MIC was defined as the antibiotic concentration of complete growth inhibition (i.e., OD600 < 0.05). Relative MIC was calculated as follows:1 relativeMIC=MICevolved/MICancestor This study focused on multiple bacterial strains, as follows. For the FoR and ALE experiments, 2 strains per species were chosen: E. coli ATCC 25922, K. pneumoniae ATCC 10031, A. baumannii ATCC 17978, and P. aeruginosa ATCC BAA-3107 as sensitive (SEN) strains, and E. coli NCTC13846, K. pneumoniae ATCC 700603, A. baumannii ATCC BAA-1605 and P. aeruginosa LESB58 as multi-drug resistant (MDR) strains. Functional metagenomic screens were performed with E. coli ATCC 25922 and K. pneumoniae ATCC 10031 strains. To determine the dose-kill properties of the different antibiotics, an E. coli strain (ATCC 25922) expressing a yellow fluorescent protein (pZS2R, YFP, CHL^R) and a red fluorescent protein (pZS2R, mCherry, CHL^R) was used."}, "[2]": {"system": "A. baumannii ATCC 17978 (SEN) and A. baumannii ATCC BAA-1605 (MDR)", "parameters": "method as in PMID 39805953", "conditions": "cited from earlier work"}, "[3]": {"system": "Escherichia coli, Klebsiella pneumoniae, Acinetobacter baumannii, and Pseudomonas aeruginosa", "conditions": "all species; cited from earlier work"}}, "note": "Read-outs that look alike come from different tables or passages of the source. Where a SMILES comes first, the peptide text is derived from it. Bridges are numbered along the chain shown (N, C = ends). [ ]: non-standard residue; d: D form. The star is where a group is joined. X2 = CC[C@H](C)CCCCC(=O)*; Dab = NCC[C@H](N)C(=O)O"}
{"smiles": "Nc1nc(-n2cc(C(=O)O)c(=O)c3cc(F)c(N4CC(O)C4)c(Cl)c32)c(F)cc1F", "note": "[Delafloxacin]", "values": [{"measurement": "MIC", "setting": "[1]", "value": 0.0156, "unit": "µg/mL"}]}
{"smiles": "CC[C@H](C)CCCCC(=O)N[C@@H](CCN)C(=O)N[C@H](C(=O)N[C@@H](CCN)C(=O)N[C@H]1CCNC(=O)[C@H]([C@@H](C)O)NC(=O)[C@H](CCN)NC(=O)[C@H](CCN)NC(=O)[C@H](CC(C)C)NC(=O)[C@@H](Cc2ccccc2)NC(=O)[C@H](CCN)NC1=O)[C@@H](C)O", "note": "[Polymyxin B] (X2-[Dab]T[Dab][Dab][Dab][dF]L[Dab][Dab]T; lactam 4-C (inferred); N-terminus assumed)", "values": [{"measurement": "resistance level (relative MIC) after FoR assay", "setting": "[2]; A. baumannii multidrug-resistant (MDR) strain", "value": "more than 128 fold"}, {"measurement": "resistance level (relative MIC) after FoR assay", "setting": "[2]; A. baumannii sensitive strain", "value": "no resistant mutants emerged"}]}
{"smiles": "CC(C)c1ccc(Cn2ccc3c4c(N)nc(NC5CC5)nc4ccc32)cc1", "note": "[SCH79797]", "values": [{"measurement": "average increment in resistance level (relative MIC) after FoR assay", "setting": "[3]", "value": "less than fourfold"}]}
